Data published in ChEMBL document CHEMBL2203226, “PPAR-γ agonistic metabolites from the ascidian Herdmania momus” (J Nat Prod, 2012).
Values after ≈ are worked out from the molar mass of the structure shown. Active and inactive are the calls of the source. The rule behind the calls is not given here.

Tests used:
[1] = molecular target: T1, Peroxisome proliferator-activated receptor gamma (Homo sapiens) (UniProt P37231); experiment: Agonist activity at full length human PPARgamma transfected in rat Ac2F cells cotransfected with PPRE-TK-luc assessed as induction of transactivation activity at 1 ug/ml by luciferase reporter gene assay relative to control; format: functional, cell-based
T1 sequence (whole entry): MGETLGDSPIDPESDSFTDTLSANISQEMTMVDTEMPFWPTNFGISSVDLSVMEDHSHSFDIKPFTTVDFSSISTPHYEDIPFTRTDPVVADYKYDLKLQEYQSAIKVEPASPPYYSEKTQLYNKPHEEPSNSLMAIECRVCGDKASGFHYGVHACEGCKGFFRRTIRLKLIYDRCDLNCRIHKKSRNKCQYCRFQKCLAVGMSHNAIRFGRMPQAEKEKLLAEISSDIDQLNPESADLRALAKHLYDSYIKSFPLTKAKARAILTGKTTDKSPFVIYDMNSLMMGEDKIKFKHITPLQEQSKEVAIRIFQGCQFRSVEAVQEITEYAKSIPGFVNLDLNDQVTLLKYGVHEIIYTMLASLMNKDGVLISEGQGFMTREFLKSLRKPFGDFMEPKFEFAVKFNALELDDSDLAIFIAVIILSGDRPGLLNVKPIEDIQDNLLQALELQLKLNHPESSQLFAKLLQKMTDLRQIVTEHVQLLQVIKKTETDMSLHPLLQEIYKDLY

[2] = molecular target: T1, Peroxisome proliferator-activated receptor gamma (Homo sapiens); experiment: Agonist activity at full length human PPARgamma transfected in rat Ac2F cells cotransfected with PPRE-TK-luc assessed as induction of transactivation activity at 10 ug/ml by luciferase reporter gene assay relative to control; format: functional, cell-based
[3] = tested on: Radical scavenging activity; experiment: Antioxidant activity assessed as DPPH radical scavenging activity; format: functional
[4] = Antioxidant activity assessed as radical scavenging activity by NBT reduction assay; format: functional

With O=C(N[C@H](Cc1c[nH]cn1)C(=O)O)C(=O)c1c[nH]c2cc(O)ccc12 the Activity [1] was “Active” and the Activity [2] was “Active”.
With N[C@@H](Cc1ccc(OC(=O)c2ccc(O)cc2)cc1)C(=O)O the IC50 [3] was 2.31 µg/mL (≈ 7.67 µM) and the IC50 [4] was 1.78 µg/mL (≈ 5.91 µM).
In the case of N=C(N)NCCC[C@@H](NC(=O)C(=O)c1c[nH]c2cc(O)ccc12)C(=O)O, the Activity [1] is reported as “Active” and the Activity [2] is reported as “Active”.
In the case of N[C@H](CCCCNC(=O)C(=O)c1c[nH]c2cc(O)ccc12)C(=O)O, the Activity [1] is reported as “Active” and the Activity [2] is reported as “Active”.
